Common to all, as to format: cell-based
Settings in all cases: Mus musculus, 72 hours, CellTiter-Glo
On the technique in general: ATP-based viability assays read luminescence as a measure of living cells.

One experiment deals with BaF3-tel-KIT-V654A. Briefly: Anti-proliferation assay, transformed BaF3 cells. The source says:
(§1) Retroviral constructs for BaF3-KIT mutants were made based on the pMSCVpuro (Clontech) backbone. For TEL-KIT vector, the first 1 kb of human TEL gene with an artificial myristoylation sequence ([…]) was cloned into the pMSCVpuro retroviral vector, followed by a 3xFLAG tag sequence. Then, the kinase domain coding sequence of KIT was inserted in-frame between TEL and 3xFLAG sequences. For full-length expression vectors, the coding sequences of KIT variants were directly cloned in pMSCVpuro vector with a 3xFLAG tag at the C-terminal end. All mutagenesis was performed using the QuikChange Site-Directed Mutagenesis Kit (Stratagene) following the manufacturer’s instructions. Retrovirus was packaged in HEK293T cells by transfecting KIT-containing MSCV vectors together with two helper plasmids. Virus supernatants were harvested 48 h after transfection and filtered before infection. Then BaF3 cells were infected with harvested virus supernatants using spinoculation protocol, and stable cell lines were obtained by puromycin selection for 48 h. The IL-3 concentrations in the culture medium were gradually withdrawn until cells were able to grow in the absence of IL-3.
(§2) Cells were grown in 96-well culture plates (2500/well). The compounds of various concentrations were added into the plates. Cell proliferation was determined after treatment with compounds for 72 hours. Cell viability was measured using the CellTiter–Glo assay (Promega, USA), according to the manufacturer’s instructions, and luminescence was measured in a multi-label reader (Envision, PerkinElmer, USA). Data were normalized to control groups (DMSO) and represented by the mean of three independent measurements with standard error <20%. GI50 values were calculated using Prism 5.0 (GraphPad Software, San Diego, CA).

For the next experiment, the system named is BaF3-tel-KIT-D816V. Briefly: Anti-proliferation assay, transformed BaF3 cells.
Excerpt: as §1, §2

A further experiment relates to BaF3-tel-KIT-A829P. Briefly: Anti-proliferation assay, transformed BaF3 cells.
Excerpt: as §1, §2

The next experiment has as its system BaF3-tel-KIT-V559D-V654A. The experiment can be described thus: Anti-proliferation assay, transformed BaF3 cells.
Excerpt: as §1, §2

For another experiment, the system named is BaF3-tel-KIT-T670I. The experiment can be described thus: Anti-proliferation assay, transformed BaF3 cells.
Excerpt: as §1, §2

The subject of the next experiment is BaF3-tel-KIT. The experiment can be described thus: Anti-proliferation assay, transformed BaF3 cells.
Excerpt: as §1, §2

For a further experiment, the system named is BaF3-tel-KIT-L576P. The experiment can be described thus: Anti-proliferation assay, transformed BaF3 cells.
Excerpt: as §1, §2

A further experiment has as its system BaF3-tel-KIT-N822K. The experiment can be described thus: Anti-proliferation assay, transformed BaF3 cells.
Excerpt: as §1, §2

The next experiment deals with BaF3-tel-KIT-V559D. The experiment can be described thus: Anti-proliferation assay, transformed BaF3 cells.
Excerpt: as §1, §2

The subject of another experiment is BaF3-tel-KIT-T670I-V559D. The experiment can be described thus: Anti-proliferation assay, transformed BaF3 cells.
Excerpt: as §1, §2

The subject of another experiment is BaF3. The experiment can be described thus: Anti-proliferation assay, parental BaF3 cells.

Structures are written as SMILES.

Regarding `CCN(CC)CCNC(=O)c1c(C)[nH]c(/C=C2\C(=O)Nc3ccc(F)cc32)c1C` [Sunitinib, reference compound], the GI50 with BaF3-tel-KIT-V654A stood at 2 nM; in the experiment on BaF3-tel-KIT-D816V it was 420 nM; with BaF3-tel-KIT-A829P, 130 nM; in the experiment on BaF3-tel-KIT-V559D-V654A it was 6 nM; with BaF3-tel-KIT-T670I, 1 nM; with BaF3-tel-KIT it was 60 nM. Moreover, the GI50 with BaF3-tel-KIT-L576P is 3 nM; in the experiment on BaF3-tel-KIT-N822K, 120 nM; in the experiment on BaF3-tel-KIT-V559D, under 0.3 nM; with BaF3-tel-KIT-T670I-V559D, 7 nM; in the experiment with BaF3, 1300 nM.

What is called GI50 is the concentration giving 50% growth inhibition.

Source of the values: article PMC5762309 (Oncotarget, 2017).
